# Test results as given in US20220401483A1, “COMBINATION OF A T CELL THERAPY AND (S)-3-[4-(4-MORPHOLIN-4-YLMETHYL-BENZYLOXY)-L-OXO-L,3-DIHYDRO-ISOINDOL-2-YL]-PIPERIDINE-2,6-DIONE” (Juno Therapeutics, Inc., priority 2019, published 2022).
# Key:
# Type in all cases: cell-based, human
# [1] = test system: Granta-519 tumor spheroids; test: Spheroid tumor growth assay after chronic stimulation with concurrent treatment
# Method: CAR T cells that had been stimulated for 6 days with anti-ID concurrently in the presence of Compound A (0.001 μM or 0.01 μM) were co-cultured with by incubation with Granta-519 tumor spheroids, and CAR T cell cytolytic function and cytokine function were assessed at various time points. For comparison, cytolytic activity was also assessed for cells that had been similarly chronically stimulated with anti-ID in the presence of 1 μM or 0.1 μM Compound B. Averaged measurement of tumor spheroid size at various times following co-culture with CAR-T cells was monitored.
# Cytokines (IFNγ, IL-2 and TNFalpha) were measured from supernatant of the chronically stimulated CAR T cells above that had been co-cultured for 5 days with CD19 tumor spheroids. The log 2 fold change compared to control cells (chronically stimulated cells that had not been concurrently treated with Compound A immunomodulatory compound) is shown in FIG. 3F.
# [2] = test system: Granta-519 tumor spheroids; test: Spheroid tumor growth assay, rescue treatment of chronically stimulated CAR T cells
# Method: Anti-CD19 CAR-expressing T cells from three donors, produced as described in Example 1, were stimulated under conditions to induce chronic stimulation (to produce hypofunctional, exhausted T cells) and then were subsequently treated (rescue) with (S)-3-[4-(4-morpholin-4-ylmethyl-benzyloxy)-1-oxo-1,3-dihydro-isoindol-2-yl]-piperidine-2,6-dione (Compound A), or a vehicle control. Long-term, chronic stimulation was carried out by stimulation of CAR T cells with 30 μg/mL plate-bound anti-idiotypic (anti-ID) antibody for 6 days, substantially as described in Example 3 but in the absence of Compound A. After the chronic stimulation, the CAR-T cells were rechallenged with CD19-expressing target cells in the presence of Compound A, and cytolytic activity or cytokine production was assessed.
# CAR T cells that had been stimulated for 6 days with anti-ID were co-cultured by incubation with Granta-519 tumor spheroids, in the presence or absence of Compound A (0.001 μM or 0.01 μM). Cells were assessed at various time points for cytolytic function and cytokine function. For comparison, cytolytic activity was also assessed for cells that had been similarly chronically stimulated with anti-ID, followed by co-culture in the presence of 1 μM or 0.1 μM Compound B. Averaged measurement of tumor spheroid size at Day 9 following co-culture with CAR-T cells was assessed. […] The improvement in cytolytic function was greater following rescue treatment with Compound A than Compound B. Cytokines (IFNγ, IL-2 and TNFalpha) were measured from supernatant of the chronically stimulated CAR T cells above that had been co-cultured for 5 days with CD19 tumor spheroids. The log 2 fold change compared to control cells (chronically stimulated cells that had not been treated with immunomodulatory compound) is shown in FIG. 4C.
# RL cells = test: Rescue of chronically stimulated CAR T cells cultured with RL cells; conditions: Compound B 1 μM, Compound A 0.001, 0.01 or 0.1 μM
# Method: The RL cells were further used to assess the ability of immunomodulatory compounds to rescue or reverse the anti-CD19 CAR T cells from exhaustion. Anti-CD19 CAR-expressing T cells were stimulated under conditions to induce chronic stimulation and then were subsequently treated (rescue) with Compound B (1 μM) or Compound A (0.001 μM, 0.01 μM or 0.1 μM), or a vehicle control. Long-term, chronic stimulation was carried out by stimulation of CAR T cells with 30 μg/mL plate-bound anti-idiotypic (anti-ID) antibody for 6 days, substantially as described in Example 3. After the chronic stimulation, the CAR-T cells were cultured with RL cells in the presence of Compound B or Compound A. Cytolytic activity was assessed over time by measuring tumor cell number in the culture.
# anti-CD19 CAR T cells = test: Intracellular cytokine staining of acutely stimulated anti-CD19 CAR T cells; conditions: 3 days, 30 μg/mL agonistic anti-CAR antibody
# Method: Effector and proliferative activity of anti-CD19 CAR T cells were assessed following incubation in the presence of absence of Compound A. Anti-CD19 CAR+ T cell compositions were generated as described in Example 1.
# The anti-CD19 CAR T cells were stimulated with agonistic antibody against the CAR (30 μg/mL; WO2018/023100) while being treated with vehicle control (ctrl) or Compound A. Intracellular cytokines were measured using intracellular cytokine staining (ICS) after 3 days of treatment. FIG. 7A show a heatmap of cytokine expression as depicted based on log 2-fold change in mean fluorescence intensity (MFI) of cytokines relative to vehicle control in culture.
# [3] = 5 days co-culture with spheroids
smiles,measurement,setting,value
"O=C1CC[C@H](N2Cc3c(OCc4ccc(CN5CCOCC5)cc4)cccc3C2=O)C(=O)N1 [Compound A, (S)-3-[4-(4-morpholin-4-ylmethyl-benzyloxy)-1-oxo-1,3-dihydro-isoindol-2-yl]-piperidine-2,6-dione]","cytolytic function, average tumor volume after 9 days",[1],significantly increased cytolytic function
same,"cytolytic function, Granta-519 spheroid growth",[1]; 0.001 μM or 0.01 μM,improved cytolytic function
same,IFNγ in co-culture supernatant,[1]; [3],statistically significant increase
same,improvement in cytolytic function compared with Compound B,[1]; Compound B 1 μM or 0.1 μM,greater
same,"CAR T cell cytolytic function, Granta-519 spheroid growth","[2]; 0.001 μM or 0.01 μM, Day 9",improved
same,IFNγ in co-culture supernatant,[2]; [3],statistically significant increase
same,improvement in cytolytic function compared with Compound B,[2]; Compound B 1 μM or 0.1 μM,greater
same,"CAR T cell cytolytic activity, RL cell growth",RL cells,substantially improved
same,"effector cytokine production (ICS, MFI vs vehicle)",anti-CD19 CAR T cells,potentiates
